# Data published in patent US6699887B2, “Anti-HIV pyrazole derivatives” (Hoffmann-La Roche Inc., priority 2000, dated 2004).
# Columns and labels:
# [1] = tested on: HXB2-strain of HIV; test: Antiviral assay: protection of HIV-infected MT4 cells from cell death (MTT); type: cell-based; settings: Human immunodeficiency virus 1, 120 h; MT4 cells infected with HXB2-strain of HIV, 5 days, MTT viability
# Method: Anti-HIV antiviral activity was assessed using an adaptation of the method of Pauwels et al. {Pauwels et al., 1988, J Virol Methods 20:309-321}. The method is based on the ability of compounds to protect HIV-infected T lymphoblastoid cells (MT4 cells) from cell-death mediated by the infection. The endpoint of the assay was calculated as the concentration of compound at which the cell viability of the culture was preserved by 50% (‘50% inhibitory concentration’, IC50). The cell viability of a culture was determined by the uptake of soluble, yellow 3-[4,5-dimethylthiazol-2-yl]-2,5-diphenyltetrazolium bromide (MTT) and its reduction to a purple insoluble formazan salt. After solubilization, spectrophotometric methods were employed to measure the amount of formazan product.
# MT4 cells were prepared to be in logarithmic-phase growth and a total of 2×10^6 cells infected with the HXB2-strain of HIV at a multiplicity of 0.0001 infectious units of virus per cell in a total volume of between 200-500 microliters. The cells were incubated with virus for one hour at 37° C. before removal of virus. The cells are then washed in 0.01 M phosphate buffered saline, pH 7.2 before being resuspensed in culture medium for incubation in culture with serial dilutions of test compound. The culture medium used was RPMI 1640 without phenol red, supplemented with penicillin, streptomycin, L-glutamine and 10% fetal calf serum (GM10).
# Test compounds were prepared as 2 mM solutions in dimethyl sulphoxide (DMSO). Four replicate, serial 2-fold dilutions in GM10 were then prepared and 50 microliters amounts placed in 96-well plates over a final nanomolar concentration range of 625-1.22. Fifty microliters GM10 and 3.5×10^4 infected cells were then added to each well. Control cultures containing no cells (blank), uninfected cells (100% viability; 4 replicates) and infected cells without compound (total virus-mediated cell death; 4 replicates) were also prepared. The cultures were then incubated at 37° C. in a humidified atmosphere of 5% CO2 in air for 5 days.
# A fresh solution of 5 mg/mL MTT was prepared in 0.01 M phosphate buffered saline, pH 7.2 and 20 microliters added to each culture. The cultures were further incubated as before for 2 hours. They were then mixed by pipetting up and down and 170 microliters of Triton X-100 in acidified isopropanol (10% v/v Triton X-100 in 1:250 mixture of concentrated HCl in isopropanol). When the formazan deposit was fully solubilized by further mixing, the absorbance (OD) of the cultures was measured at 540 nm and 690 nm wavelength (690 nm readings were used as blanks for artefacts between wells). The percent protection for each treated culture was then calculated from the equation: [formula]
# The IC50 can be obtained from graph plots of percent protection versus log10 drug concentration.
# [2] = target: HIV-1 RT (Human immunodeficiency virus type 1 group M subtype B, UniProt P04585); test: HIV-1 Reverse Transcriptase Assay: Inhibitor IC50 Determination; type: biochemical; settings: purified recombinant enzyme, poly(rA)/oligo(dT)16 template-primer, 37° C. 30 min
# Method: Assay Method: HIV-1 Reverse Transcriptase Assay: Inhibitor IC50 Determination:
# HIV-1 RT assay was carried out in 96-well Millipore filtermat NOB50 plates using purified recombinant enzyme and a poly(rA)/oligo(dT)16 template-primer in a total volume of 50 μL. The assay constituents were 50 mM Tris/HCl, 50 mM NaCl, 1 mM EDTA, 6 mM MgCl2, 5 μM dTTP, 0.1 μCi [^3H] dTTP, 5 μg/ml poly (rA) pre annealed to 2.5 μg/ml oligo (dT)16 and a range of inhibitor concentrations in a final concentration of 10% DMSO. Reactions were initiated by adding 5 nM HIV-1 RT and after incubation at 37° C. for 30 min, they were stopped by the addition of 50 μl ice cold 20%TCA and allowed to precipitate at 4° C. for 30 min. The precipitates were collected by applying vacuum to the plate and sequentially washing with 2×200 μl of 10% TCA and 2×200 μl 70% ethanol. Finally the plates were dried and radioactivity counted in a Wallac Microbeta 1450 after the addition of 15 μl scintillation fluid per well. IC50's were calculated by plotting % inhibition versus log10 inhibitor concentrations.
Compound,IC50 [1],IC50 [2]
Cc1nn(-c2ccccc2)c(Sc2cc(Cl)cc(Cl)c2)c1Cc1ccccc1,403 nM,2060 nM
Cc1nn(-c2ccccc2)c(Sc2cc(Cl)cc(Cl)c2)c1CCc1ccccc1,592 nM,3420 nM
CCn1nc(COC)c(Cc2ccccc2)c1Sc1cc(Cl)cc(Cl)c1,453 nM,8040 nM
Cc1nn(C(C)C)c(Sc2cc(Cl)cc(Cl)c2)c1Cc1ccccc1,24 nM,270 nM
Cc1nn(-c2ccccc2)c(Sc2cc(Cl)cc(Cl)c2)c1Cc1ccncc1,36 nM,105 nM
CCn1nc(C)c(Cc2ccncc2)c1Sc1cc(Cl)cc(Cl)c1,9 nM,84 nM
Cc1nn(C(C)C)c(Sc2cc(Cl)cc(Cl)c2)c1Cc1ccccn1,75 nM,1070 nM
Cc1nn(C(C)C)c(Sc2cc(Cl)cc(Cl)c2)c1COCc1ccccc1,100 nM,349 nM
Cc1cc(C)cc(Sc2c(Cc3ccccn3)c(C)nn2C(C)C)c1,64 nM,950 nM
Cc1nn(C(C)C)c(Sc2cc(Cl)cc(Cl)c2)c1COc1cccnc1,110 nM,313 nM
Cc1nn(C(C)C)c(Sc2cc(Cl)cc(Cl)c2)c1COc1cncc(Cl)c1,203 nM,650 nM
Cc1nn(C(C)C)c(Sc2cc(Cl)cc(Cl)c2)c1COCc1ccncc1,3.6 nM,112 nM
Cc1nn(C(C)C)c(Sc2cc(Cl)cc(Cl)c2)c1Cc1cccnc1,14.6 nM,572 nM
Cc1nn(C(C)C)c(Sc2cc(Cl)cc(Cl)c2)c1Cc1ccncc1,2.7 nM,76 nM
Cc1nn(C(C)C)c(Sc2cc(Cl)cc(Cl)c2)c1CSc1ccncc1,34.1 nM,292 nM
Cc1nn(C(C)C)c(Sc2cc(Cl)cc(Cl)c2)c1Cc1ccncn1,13.5 nM,456 nM

Compound,IC50 [1],IC50 [2]
Cc1nn(C(C)C)c(Sc2cc(Cl)cc(Cl)c2)c1COc1ccncc1,20 nM,252 nM
Cc1nn(C(C)C)c(Sc2cc(Cl)cc(Cl)c2)c1Cc1ccncc1F,11.1 nM,373 nM
Cc1nn(C(C)C)c(Sc2cc(Cl)cc(Cl)c2)c1Cc1ccncc1Cl,51.7 nM,177 nM
CCn1nc(C)c(Cc2cncc(Br)c2)c1Sc1cc(Cl)cc(Cl)c1,124 nM,398 nM
Cc1nn(C(C)C)c(Sc2cc(Cl)cc(Cl)c2)c1Cc1ccc(C#N)cc1,11.9 nM,176 nM
Cc1nn(C(C)C)c(Sc2cc(Cl)cc(Cl)c2)c1Cc1ccnc(Cl)c1,15 nM,109 nM
Cc1cc(Cc2c(C)nn(C(C)C)c2Sc2cc(Cl)cc(Cl)c2)cc(Cl)n1,28 nM,880 nM
Cc1nn(C(C)C)c(Sc2cc(Cl)cc(Cl)c2)c1Cc1cnccn1,13.9 nM,270 nM
COc1cc(Cl)cc(Sc2c(Cc3ccnc(OC)c3)c(C)nn2C(C)C)c1,31.5 nM,298 nM
Cc1nn(C(C)C)c(Sc2cccc(Br)c2)c1Cc1ccncc1Cl,,5200 nM
Cc1cccc(Sc2c(Cc3ccncc3Cl)c(C)nn2C(C)C)c1,,1080 nM
Cc1cc(C)cc(Sc2c(Cc3ccncc3Cl)c(C)nn2C(C)C)c1,,607 nM
Cc1nn(C(C)C)c(Sc2cccc(Br)c2)c1Cc1ccncc1F,19 nM,463 nM
Cc1cccc(Sc2c(Cc3ccncc3F)c(C)nn2C(C)C)c1,19 nM,480 nM
Cc1cc(C)cc(Sc2c(Cc3ccncc3F)c(C)nn2C(C)C)c1,8.1 nM,90 nM
